pIC50: −log10 of the molar value.
Tests used:
MAGL = MAGL (Mus musculus (Mouse), UniProt O35678); experiment: In vitro competitive activity-based protein profiling, MAGL (mouse); assay type: biochemical; conditions: for inhibition at 1 µM: read-out: MAGL % inh. 1 μM (mouse)
Method in brief: (§1)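 Residual MAGL and FAAH activity quantified from fluorescent gel bands after SDS-PAGE. Before that, FP-Rh or HT-01 probe (50 μM stock) labelled for 30 min at 37 °C, following 30 min inhibitor preincubation. Mouse assays used brain membrane fraction or cell lysates, human used prefrontal cortex or cell membranes, all at 1.0 mg/mL protein.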

FAAH = FAAH (Mus musculus (Mouse), UniProt O08914); experiment: In vitro competitive activity-based protein profiling, FAAH (mouse); assay type: biochemical; conditions: for inhibition at 1 µM: read-out: FAAH % inh. 1 μM (mouse)
Chain of FAAH (O08914 whole entry): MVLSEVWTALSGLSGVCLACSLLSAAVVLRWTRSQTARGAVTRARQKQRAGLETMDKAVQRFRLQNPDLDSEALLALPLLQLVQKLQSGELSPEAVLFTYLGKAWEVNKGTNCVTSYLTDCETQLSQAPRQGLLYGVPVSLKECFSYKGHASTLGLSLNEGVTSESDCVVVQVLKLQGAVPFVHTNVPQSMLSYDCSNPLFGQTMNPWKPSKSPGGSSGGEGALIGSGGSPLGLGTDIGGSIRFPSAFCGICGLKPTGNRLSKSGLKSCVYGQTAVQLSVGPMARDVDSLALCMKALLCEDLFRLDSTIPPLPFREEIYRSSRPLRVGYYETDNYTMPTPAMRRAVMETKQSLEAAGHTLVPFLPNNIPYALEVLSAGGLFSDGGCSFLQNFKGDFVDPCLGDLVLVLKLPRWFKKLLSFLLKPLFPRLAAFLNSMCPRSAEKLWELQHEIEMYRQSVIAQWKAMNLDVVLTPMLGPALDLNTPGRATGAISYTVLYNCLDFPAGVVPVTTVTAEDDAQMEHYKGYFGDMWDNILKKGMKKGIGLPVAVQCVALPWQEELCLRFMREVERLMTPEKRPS
Method in brief: as §1

Chain of MAGL (O35678 whole entry): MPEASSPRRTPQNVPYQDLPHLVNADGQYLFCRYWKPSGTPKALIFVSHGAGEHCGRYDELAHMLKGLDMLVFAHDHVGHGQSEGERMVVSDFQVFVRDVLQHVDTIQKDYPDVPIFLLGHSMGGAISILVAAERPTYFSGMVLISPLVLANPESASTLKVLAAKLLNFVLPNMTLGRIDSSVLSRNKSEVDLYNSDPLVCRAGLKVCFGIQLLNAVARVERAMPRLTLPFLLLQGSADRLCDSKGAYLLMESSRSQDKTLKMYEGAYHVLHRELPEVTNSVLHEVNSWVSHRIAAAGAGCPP

| Compound | pIC50 (MAGL) | inhibition at 1 µM (MAGL; 1 μM) [%] | pIC50 (FAAH) | inhibition at 1 µM (FAAH; 1 μM) [%] | MAGL % inh. 1 μM (mouse) (MAGL; 1 μM) | FAAH % inh. 1 μM (mouse) (FAAH; 1 μM) |
| --- | --- | --- | --- | --- | --- | --- |
| CC(=O)N(C)c1cnn(C(=O)N2CCC3(CCN(Cc4cc(Cl)ccc4C(F)(F)F)C3)C2)c1 (centres unmarked) [Example 70, N-(1-(7-(5-chloro-2-(trifluoromethyl)benzyl)-2,7-diazaspiro[4.4]nonane-2-carbonyl)-1H-pyrazol-4-yl)-N-methylacetamide] | ≥ 7.00 | ≥ 75 | ≥ 7.00 | ≥ 75 | – | – |
| N-(1-(5-(3-(4- methoxyphenoxy)benzyl) octahydropyrrolo[3,4-c]pyrrole-2- carbonyl)-1H-pyrazol-4-yl)-N- methylacetamide [Example 243] | ≥ 7.00 | – | ≥ 7.00 | – | A (A = % inhibition greater than or equal to 75%) | A (A = % inhibition greater than or equal to 75%) |
| CC(=O)N(C)c1cnn(C(=O)N2CCC3(CCN(Cc4ccc(C)cc4Cl)C3)C2)c1 (centres unmarked) [Example 55, N-(1-(7-(2-chloro-4-methylbenzyl)-2,7-diazaspiro[4.4]nonane-2-carbonyl)-1H-pyrazol-4-yl)-N-methylacetamide] | 6.00 to 7.00 | ≥ 75 | ≥ 7.00 | ≥ 75 | – | – |
| CC(=O)N(C)c1cnn(C(=O)N2C[C@H]3C[C@@H](N(C)Cc4cc(N5C6CCC5COC6)cc(C(F)(F)F)c4)C[C@H]3C2)c1 [Example 151, N-(1-(cis-5-((3-(3-oxa-8-azabicyclo[3.2.1]octan-8-yl)-5-(trifluoromethyl)benzyl)(methyl)amino)octahydrocyclopenta[c]pyrrole-2-carbonyl)-1H-pyrazol-4-yl)-N-methylacetamide] | 6.00 to 7.00 | ≥ 75 | 6.00 to 7.00 | ≥ 75 | – | – |
| CC(=O)N(C)c1cnn(C(=O)N2CCC3(CCN(Cc4ccc(N5CCCC5)cc4)C3)C2)c1 (centres unmarked) [Example 47, N-methyl-N-(1-(7-(4-(pyrrolidin-1-yl)benzyl)-2,7-diazaspiro[4.4]nonane-2-carbonyl)-1H-pyrazol-4-yl)acetamide] | – | 25 to 50 | – | ≥ 75 | – | – |
| CC(=O)N(C)c1cnn(C(=O)N2CCC3(CC2)CN(Cc2cccc(C(F)(F)F)c2)C3)c1 [Example 38, N-methyl-N-(1-(2-(3-(trifluoromethyl)benzyl)-2,7-diazaspiro[3.5]nonane-7-carbonyl)-1H-pyrazol-4-yl)acetamide] | ≥ 7.00 | ≥ 75 | 6.00 to 7.00 | ≥ 75 | – | – |
| CC(=O)N(C)c1cnn(C(=O)N2CCC3(CC2)CN(Cc2ccc(C(F)(F)F)cc2)C3)c1 [Example 26, N-methyl-N-(1-(2-(4-(trifluoromethyl)benzyl)-2,7-diazaspiro[3.5]nonane-7-carbonyl)-1H-pyrazol-4-yl)acetamide] | ≥ 7.00 | ≥ 75 | 6.00 to 7.00 | ≥ 75 | – | – |
| CC(=O)N(C)c1cnn(C(=O)N2CCC3(CC2)CN(Cc2ccccc2N2CCOCC2)C3)c1 [Example 46, N-methyl-N-(1-(2-(2-morpholinobenzyl)-2,7-diazaspiro[3.5]nonane-7-carbonyl)-1H-pyrazol-4-yl)acetamide] | – | 50 to 75 | – | 0 to 25 | – | – |

Further lines, with some results ahead:

| pIC50 (MAGL) | inhibition at 1 µM (MAGL; 1 μM) [%] | pIC50 (FAAH) | inhibition at 1 µM (FAAH; 1 μM) [%] | Compound | MAGL % inh. 1 μM (mouse) (MAGL; 1 μM) | FAAH % inh. 1 μM (mouse) (FAAH; 1 μM) |
| --- | --- | --- | --- | --- | --- | --- |
| ≥ 7.00 | ≥ 75 | 6.00 to 7.00 | 25 to 50 | CC(=O)N(C)c1cnn(C(=O)N2CCN(Cc3ccc(C(F)(F)F)cc3N3CCCC3)CC2)c1 [Example 191, N-methyl-N-(1-(4-(2-(pyrrolidin-1-yl)-4-(trifluoromethyl)benzyl)piperazine-1-carbonyl)-1H-pyrazol-4-yl)acetamide] | – | – |
| ≥ 7.00 | ≥ 75 | ≥ 7.00 | ≥ 75 | CC(=O)N(C)c1cnn(C(=O)N2CC3CN(Cc4ccc(C)cc4Cl)CC3C2)c1 (centres unmarked) [Example 115, N-(1-(5-(2-chloro-4-methylbenzyl)octahydropyrrolo[3,4-c]pyrrole-2-carbonyl)-1H-pyrazol-4-yl)-N-methylacetamide] | – | – |
| 6.00 to 7.00 | ≥ 75 | 5.00 to 6.00 | 25 to 50 | CN(c1cnn(C(=O)N2CCN(Cc3ccc(C(F)(F)F)cc3N3CCCC3)CC2)c1)S(C)(=O)=O [Example 218, N-methyl-N-(1-(4-(2-(pyrrolidin-1-yl)-4-(trifluoromethyl)benzyl)piperazine-1-carbonyl)-1H-pyrazol-4-yl)methanesulfonamide] | – | – |
| – | 25 to 50 | – | ≥ 75 | CC(=O)N(C)c1cnn(C(=O)N2C[C@H]3C[C@@H](NCc4ccccc4Cl)C[C@H]3C2)c1 [Example 133, N-(1-(cis-5-(2-chlorobenzylamino)octahydrocyclopenta[c]pyrrole-2-carbonyl)-1H-pyrazol-4-yl)-N-methylacetamide] | – | – |
| ≥ 7.00 | ≥ 75 | ≥ 7.00 | ≥ 75 | CC(=O)N(C)c1cnn(C(=O)N2CC3CN(Cc4cc(N5CCOCC5)cc(C(F)(F)F)c4)CC3C2)c1 (centres unmarked) [Example 114, N-methyl-N-(1-(5-(3-morpholino-5-(trifluoromethyl)benzyl)octahydropyrrolo[3,4-c]pyrrole-2-carbonyl)-1H-pyrazol-4-yl)acetamide] | – | – |
| – | 25 to 50 | – | ≥ 75 | CS(=O)(=O)Nc1cnn(C(=O)N2CCC3(CCN(Cc4cc(Cl)cc(C(F)(F)F)c4)C3)C2)c1 (centres unmarked) [Example 286, N-(1-(7-(3-chloro-5-(trifluoromethyl)benzyl)-2,7-diazaspiro[4.4]nonane-2-carbonyl)-1H-pyrazol-4-yl)methanesulfonamide] | – | – |
| 6.00 to 7.00 | ≥ 75 | ≥ 7.00 | ≥ 75 | CC(=O)N(C)c1cnn(C(=O)N2CC3CN(Cc4ccc(F)c(Cl)c4)CC3C2)c1 (centres unmarked) [Example 122, N-(1-(5-(3-chloro-4 fluorobenzyl)octahydropyrrolo[3,4-c]pyrrole-2-carbonyl)-1H-pyrazol-4-yl)-N-methylacetamide] | – | – |
| – | ≥ 75 | – | ≥ 75 | CS(=O)(=O)Nc1cnn(C(=O)N2CCN(Cc3cccc(Oc4ccc(Cl)cc4)c3)CC2)c1 [Example 296, N-(1-(4-(3-(4-chlorophenoxy)benzyl)piperazine-1-carbonyl)-1H-pyrazol-4-yl)methanesulfonamide] | – | – |
| – | ≥ 75 | – | ≥ 75 | CC(=O)N(C)c1cnn(C(=O)N2CC3CN(Cc4ccc(OC5CCN(C6CC6)CC5)cc4C(F)(F)F)CC3C2)c1 (centres unmarked) [Example 271, N-(1-(5-(4-((1-cyclopropylpiperidin-4-yl)oxy)-2-(trifluoromethyl)benzyl)octahydropyrrolo [3,4-c]pyrrole-2-carbonyl)-1H-pyrazol-4-yl)-N-methylacetamide] | – | – |
| 6.00 to 7.00 | ≥ 75 | ≥ 7.00 | ≥ 75 | CS(=O)(=O)Nc1cnn(C(=O)N2CCN(Cc3ccc(-c4ccccc4)cc3Cl)CC2)c1 [Example 221, N-(1-(4-((3-chloro-[1,1′-biphenyl]-4-yl)methyl)piperazine-1-carbonyl)-1H-pyrazol-4-yl)methanesulfonamide] | – | – |
| – | ≥ 75 | – | ≥ 75 | CC(=O)N(C)c1cnn(C(=O)N2CC3CN(Cc4ccc(N5CCOCC5)c(C(F)(F)F)c4)CC3C2)c1 (centres unmarked) [Example 99, N-methyl-N-(1-(5-(4-morpholino-3-(trifluoromethyl)benzyl)octahydropyrrolo[3,4-c]pyrrole-2-carbonyl)-1H-pyrazol-4-yl)acetamide] | – | – |
